According to patent US20220155314A1, “TROPHOBLAST STEM CELL, METHODS OF PREPARATION AND USES THEREOF” (Academia Sinica, priority 2020, published 2022):

Experiments:
Assay type in all cases: cell-based, human
JEG3 cells = experiment: Immunoblotting and quantitative RT-PCR of trophoblast differentiation and stemness genes in JEG3 cells; details: 50 μM FSK or 1 mM DB-cAMP
Description: FIGS. 2A to 2I show the physical and functional interaction between ΔNp63α and GCM1. […] First-trimester and term placental sections were stained with ΔNp63α and GCM1 antibodies (Abs) for immunofluorescence microscopy. Boxed areas are shown at higher magnification and presented below. Arrowhead, asterisk, and arrow indicate trophoblasts expressing ΔNp63α, GCM1, and both, respectively. Nuclei were stained with DAPI. Term placental sections were stained with CK7 Ab for trophoblasts and normal mouse IgG (M-IgG) and rabbit IgG (R-IgG) for negative controls. […] Mock and ΔNp63α-FLAG-expressing BeWo cells were subjected to immunoblotting (left) and quantitative RT-PCR (right) analyses of GCM1, HTRA4, and hCGβ proteins and transcripts. […] BeWo cells stably expressing scramble or GCM1 shRNA were subjected to immunoblotting (left) and quantitative RT-PCR (right) analyses of GCM1 and ΔNp63α proteins and transcripts. […] JEG3 cells were mock treated (DMSO or control buffer (CTRL)) or treated with 50 μM FSK or 1 mM DB-cAMP for 24 h, followed by immunoblotting and quantitative RT-PCR analyses of the indicated trophoblast differentiation and stemness proteins or transcripts. […]
FIGS. 3A to 3I show reciprocal regulation of GCM1 and ΔNp63α activities in trophoblast differentiation. […] Cell fusion was quantified by fusion index. […]

ST-TS^Term#2 cells = experiment: STB differentiation from TS^Term#2 cells with cyclocreatine; details: TS^Term#2 cells induced into STBs for 72 h with cyclocreatine (FIG. 11H)
Description: FIGS. 11A to 11I show the regulation of STB differentiation by the GCM1-CKMT1 axis. […] TS^Term#1, TS^Term#2, and TS#1^GCM1-KO cells and their derivative STBs were subjected to RNA-seq analysis. […] TS^Term#1, TS^Term#2, and TS^Term#3 cells and their derivative STBs were subjected to immunoblotting and quantitative RT-PCR analyses of GCM1, hCGβ or CKMT1 proteins and transcripts. […] Scramble control and CKMT1-knockdown TS^Term#2 cells and their derivative STBs were stained with MitoTracker and CKMT1 Ab for immunofluorescence microscopy. Scale bars in FIGS. 11D and 11E, 100 μm. […] Scramble control and CKMT1-knockdown TS^Term#2 cells and their derivative STBs were subjected to immunoblotting and quantitative RT-PCR analyses of GCM1, hCGβ, LHB or CKMT1 proteins or transcripts. In a separated experiment, cells were stained with E-cadherin Ab for cell fusion analysis. Syncytial margins are marked with a stippled line. Cell fusion efficiency was measured by fusion index or the distribution of syncytia containing varying numbers of nuclei. Scale bar, 100 μm. […] Mock (ST)- or cyclocreatine-treated TS^Term#2 cells (ST+Cyclo-Cr) were induced into STBs for 72 h, followed by immunoblotting analysis of hCGβ protein. […]

BeWo cells = experiment: Expression of trophoblast stemness and differentiation genes in BeWo cells treated with EGF and chemical inhibitors
Procedure: FIGS. 6A to 6I show the regulation of trophoblast stemness and differentiation by antagonism between ΔNp63α and GCM1. […] ITGA6-positive term CTBs were cultured in complete TS medium for 5 days and then maintained in the same medium or incomplete medium (vehicle alone without EGF and chemical inhibitors) for an additional 7 days. Cells were subjected to immunofluorescence microscopy of ΔNp63α, GCM1, and hCGβ. […] BeWo cells were incubated in complete or incomplete TS medium supplemented with the indicated growth factor or chemical inhibitor(s) for 24 h. Cells were harvested for quantitative RT-PCR analysis of the indicated stemness or differentiation genes. […] BeWo cells were treated with the indicated concentration of VPA for 24 hours and then harvested for immunoblotting and quantitative RT-PCR analyses of GCM1, ΔNp63α, and hCGβ. […] BeWo cells were transfected with 4XCSL-luciferase in the presence or absence of 2 mM VPA for 48 hours, followed by luciferase assays. […] 293T cells were transfected with pHA-GCM1 and pNotch1IC-FLAG for 48 hours, followed by coimmunoprecipitation analysis and confocal microscopy using FLAG and HA mAbs and GCM1 Ab. […] EGFP-positive mock or Notch1IC-FLAG-expressing BeWo cells were treated with or without 50 μM FSK for 24 h, followed by immunoblotting and quantitative RT-PCR analyses of GCM1, hCGβ or HTRA4. […] BeWo cells were treated with or without 1 mM VPA in the presence or absence of 20 μM MG132 for 8 h and then subjected to immunoblotting analysis of GCM1 and Notch1IC. […] The EGFP-positive mock or Notch1IC-FLAG-expressing BeWo cells were transfected with the GCM1 promoter reporter plasmid E1bLUCGCM1-2K for 48 h and then subjected to luciferase assays. […] BeWo cells and ITGA6-positive term CTBs were cultured under normoxic or hypoxic conditions for 72 h and 7 days, respectively. Cells were then harvested for quantitative RT-PCR analysis of GCM1, ΔNp63α, HTRA4, hCGβ, and MKI67. Means and standard deviations obtained from three independent experiments are presented.
To study the effect of EGF and chemical inhibitors on trophoblast differentiation, BeWo cells were cultured in the complete TS medium or in the incomplete TS medium with EGF alone or the indicated chemical inhibitor(s) for 24 h. Cells were then harvested for quantitative RT-PCR or immunoblotting analysis of expression of ΔNp63α, eomesodermin (EOMES), E74-like factor 5 (ELF5) or GCM1 and its target genes.

Notch signaling = experiment: Notch reporter (4xCSL-luciferase) assay; details: BeWo cells; 2 mM VPA, 48 hours (FIG. 6D)
Procedure: FIGS. 6A to 6I show the regulation of trophoblast stemness and differentiation by antagonism between ΔNp63α and GCM1. […] ITGA6-positive term CTBs were cultured in complete TS medium for 5 days and then maintained in the same medium or incomplete medium (vehicle alone without EGF and chemical inhibitors) for an additional 7 days. Cells were subjected to immunofluorescence microscopy of ΔNp63α, GCM1, and hCGβ. […] BeWo cells were incubated in complete or incomplete TS medium supplemented with the indicated growth factor or chemical inhibitor(s) for 24 h. Cells were harvested for quantitative RT-PCR analysis of the indicated stemness or differentiation genes. […] BeWo cells were treated with the indicated concentration of VPA for 24 hours and then harvested for immunoblotting and quantitative RT-PCR analyses of GCM1, ΔNp63α, and hCGβ. […] BeWo cells were transfected with 4XCSL-luciferase in the presence or absence of 2 mM VPA for 48 hours, followed by luciferase assays. […] EGFP-positive mock or Notch1IC-FLAG-expressing BeWo cells were treated with or without 50 μM FSK for 24 h, followed by immunoblotting and quantitative RT-PCR analyses of GCM1, hCGβ or HTRA4. […] Cells were then harvested for quantitative RT-PCR analysis of GCM1, ΔNp63α, HTRA4, hCGβ, and MKI67. […]

[1] = single agent in incomplete TS medium, 24 h (FIG. 6B)
[2] = VPA 24 hours, dose-dependent (FIG. 6C)
[3] = EGF alone in incomplete TS medium, 24 h (FIG. 6B)

## CCCC(=O)Nc1ncnc2c1ncn2[C@@H]1O[C@@H]2COP(=O)(O)O[C@H]2[C@H]1OC(=O)CCC [DB-cAMP, dibutyryl-cAMP]
JEG3 cells; 24 h (FIG. 2I)
  expression of ΔNp63α and trophoblast stemness genes ELF5, EOMES, and TEAD4: decreased expression
JEG3 cells; 24 h, immunoblotting and qRT-PCR (FIG. 2I)
  expression of GCM1 and its target genes syncytin-1 (SYN1), hCGβ, HTRA4, PGF, and WNT10B: increased expression

## NC1=NCCN1CC(=O)O [cyclocreatine]
ST-TS^Term#2 cells
  hCGβ, SYN1, and LHB expression: suppressed

## Cc1c[nH]c(-c2cnc(NCCNc3ccc(C#N)cn3)nc2-c2ccc(Cl)cc2Cl)n1 [CHIR99021]
BeWo cells; [1]
  expression of ELF5, TEAD4, and AXIN2: upregulation
  expression of WNT10B: downregulation

## CCCC(CCC)C(=O)O [VPA, valproic acid]
Notch signaling
  Notch reporter plasmid p4×CSL-luciferase activity: transactivated
BeWo cells; [2]
  GCM1 and hCGβ expression: suppress
  ΔNp63α expression: increase

## epidermal growth factor (NSDSECPLSHDGYCLHDGVCMYIEALDKYACNCVVGYIGERCQYRDLKWWELR; not fully specified; Epidermal growth factor; UniProt P01133 971-1023, looked up) [EGF, growth factor in complete TS medium]
BeWo cells; [3]
  GCM1 and WNT10B expression: suppressed
  hCGβ expression: enhanced
